This data set is described as follows: Extraction and back-extraction with p-diisopropylbenzene or 1,7-octadiene: rhodium concentration in both phases, composition of extraction solution. The data set is classed as physicochemical. The procedure:
Examples […] illustrate yet another embodiment of the process of the present invention wherein extraction solution containing dissolved rhodium is back-extracted with either hydroformylation solvent or olefinic feedstock to reduce the concentration of rhodium in the extraction solution.
The general procedure described in Examples 31-48 was used to extract 60.5 mL of hydroformylation product solution obtained by the hydroformylation of 1,7 octadiene in the presence of a catalyst system comprising rhodium and BISBI phosphine (Reference Example 9). […] The extraction flask was charged with the hydroformylation product solution, 37 mL methanol, 12 mL water and […] [Na] provided as sodium oleate.
For Example 88, the extraction mixture was stirred at room temperature for 30 minutes and then drained into a calibrated, addition funnel and allowed to stand for about five minutes to permit phase separation. The volume of the hydroformylation product solution (organic) phase was 45 mL and the volume of the extraction solution phase was 65 ml. Samples of each phase were taken for rhodium and product composition analyses.
For Example 89, the extraction solution phase separated in Example 88 was added to a clean 250 mL flask along with 30 mL of p-diisopropylbenzene and the mixture was stirred at 50° C. for 30 minutes, was allowed to stand at 50° C. for about 5 minutes to permit phase separation and then each phase was separated and analyzed for composition and rhodium concentration.
For Example 90, the extraction solution separated in Example 89 was added to a clean 250 mL flask along with another 30 mL of p-diisopropylbenzene hydroformylation solvent. The mixture was agitated at 50° C. for thirty minutes, allowed to stand at 50° C. for 5 minutes to permit phase separation and each phase was analyzed for composition and rhodium concentration.
This scheme would be useful in a counter-current extraction method for recycling recovered hydroformylation product solution as well as in using the olefinic feed to the reactor as a back extraction solvent for recovering soluble rhodium from the methanol/water extract.
Example 91 was carried out using the procedure described in Examples 88. The flask was charged with 62 mL of a hydroformylation product solution (Reference Example 10) having a rhodium concentration 166 mg/L and containing 3.01 g of C9-enal, 12.69 g of C10-dial and 37.84 grams of p-diisopropylbenzene. Methanol (37 ml), water (16 ml) and 78 mg Na (as sodium 2-ethylhexanoate) were added to the flask. This mixture was stirred at 50° C. for 30 minutes and then allowed to stand for 5 minutes at 50° C. to permit phase separation. The hydroformylation product solution (organic) phase and the extraction solution phase were both sampled and analyzed for rhodium concentration. The 2 phases were drained into a clean, graduated addition funnel and the volumes of the two phases were measured. The volume of the organic layer was 43 mL and the extraction solution layer was 62 mL.
For Example 92, the extraction solution phase produced in Example 91 was added to a clean, 250 mL flask along with 30 mL of p-diisopropylbenzene and the mixture was stirred at 50° C. for 30 minutes and then allowed to separate into two phases. The two phases were analyzed for rhodium concentration and composition. The mixture was drained into a clean addition funnel to separate the two phases. For Example 93, the extraction solution phase of Example 92 and 30 mL of 1,7-octadiene were added to a clean, 250 mL flask. This mixture was stirred at 50° C. for 30 minutes and then allowed to separate into two phases which were analyzed for rhodium concentration.
The amounts (g) of C9-enal, C10-dial in the sample of hydroformylation product solution initially extracted and in the methanol/water extraction solutions resulting from Examples 91, 92 and 93 are given in Table XIII. The ratio given in Table XIII is the weight ratio of C10-dial:C9-enal. […]

Where [1] appears, read: Example 88, initial extraction, sodium oleate.
Setting [2] is: Example 89, first back-extraction, p-diisopropylbenzene, 50° C.
[3] abbreviates: Example 90, second back-extraction, p-diisopropylbenzene, 50° C.
Where [4] appears, read: Example 91, initial extraction, sodium 2-ethylhexanoate, 50° C.
Setting [5] is: Example 92, back-extraction, p-diisopropylbenzene, 50° C.
The mark [6] stands for this setting: Example 94, initial extraction, no salt, 25° C.
The mark [7] stands for this setting: Example 95, back-extraction, p-diisopropylbenzene, 50° C.

For `[Rh]` [Rh, rhodium], the “Rhodium Concentration, Extraction Solution Phase” value by setting is: under setting [1], 5.2 mg Rh per liter; under setting [2], 1.6 mg Rh per liter; under setting [3], 1.0 mg Rh per liter; under setting [4], 6.2 mg Rh per liter; under setting [5], 1.0 mg Rh per liter; (Example 93, back-extraction, 1,7-octadiene, 50° C., listed as Rhodium) < 1 mg Rh per liter. Moreover, the “Rhodium Concentration, Extraction Solution Phase” value is “below detection limits” (Example 93, back-extraction, 1,7-octadiene, 50° C., listed as rhodium); 37 mg Rh per liter under setting [6]; 33 mg Rh per liter under setting [7]. Besides, the “Rhodium Concentration, Organic Phase” value is recorded as 235 mg Rh per liter under setting [1]; 7.2 mg Rh per liter under setting [2]; 1.2 mg Rh per liter under setting [3]; 216 mg Rh per liter under setting [4]; 7.0 mg Rh per liter under setting [5]; < 1 mg Rh per liter (Example 93, back-extraction, 1,7-octadiene, 50° C.). Further, the “Rhodium Concentration, Organic Phase” value is recorded as 195 mg Rh per liter under setting [6] and 24 mg Rh per liter under setting [7].

The values above are taken from US5138101A, “Recovery of high-boiling aldehydes from rhodium-catalyzed hydroformylation processes” (Eastman Kodak Company, priority 1991, dated 1992).
